Earlier results as cited in patent EP0292255A2, “Inhibitor of ribonucleotide reductase” (Merck & Co., Inc., priority 1987, dated 1988).
Ends that are not written are not given here.

Test system: ribonucleotide reductase enzyme of herpes simplex virus
Details: result in words, from Nature 321:439-441 and 441-443 (1986)

Substance | inhibition of the activity of the ribonucleotide reductase enzyme of herpes simplex virus in vitro
YGAVVNDL [8-desalanine homolog of the nonapeptide, disclosed by Dutia et al] | inhibited
Tyr Ala Gly Ala Val Val Asn Asp Leu (YAGAVVNDL; printed: Tyr Ala Gly Ala Val Val Asn Asp Leu) [nonapeptide disclosed by Dutia et al. and Cohen et al] | inhibited
